{"source": "paper PMC7002685", "about": "“Inhibition of vascular calcification by inositol phosphates derivatized with ethylene glycol oligomers” (Nature Communications, 2020)", "key": {"[1]": {"system": "TNFα release from THP-1-derived macrophages", "assay": "TNFα release from macrophages, compound without CPP2", "type": "cell-based, human", "details": "without combined CPP2 treatment", "experimental": "THP-1 cells were plated at a density of 200,000 cells/well in a 24-well plate, differentiated as stated above, and subsequently treated with or without CPP2 (50 μg Ca/mL) in complete medium with or without test compounds (3, 10, 30, 100 μM) for 24 h at 37 °C, 5% CO2.\nHuman TNF-α was assayed in cell culture supernatants using commercial multiplex immunoassay kits (U-Plex of TNF-α (custom-made multiplex plate) and Human TNF- Kit (K151QWD-1), both from MesoScaleDiscovery, Rockville, MD, USA), and corrected for total protein content using the Micro BCA^TM Protein Assay Kit. […]\nData are expressed as\nmean ± s.d. (n = 3 independent experiments)."}, "[2]": {"assay": "Urinary excretion after s.c. administration", "type": "in vivo, rat", "details": "10 mg/kg s.c.; for Cumulative recovery from rat urine / dose excreted: healthy rats; for dose excreted: rat, urine, subcutaneous, 10 mg/kg, read-out: Cumulative recovery from rat urine", "experimental": "To study urinary excretion, six animals were administered s.c. 10 mg/kg of (OEG2)2-IP4 and two animals served as blank urine controls. Animals were placed in separated metabolic cages ([…] S.p.A. Buguggiate, Italy) right after dosing, left there for the entire experiment, and urine was collected after 2, 5, 8, and 24 h. At the end of the experiment, cages were washed with 10 mL water and the washes were collected in separated tubes. Urine samples were centrifuged at 3000 × g and 4 °C for 10 min and stored at −20 °C until quantification of (OEG2)2-IP4 by LC-MS/MS. Recovery (%) was calculated using Eq. (2).2 Recovery%=OEG22IP4μg/doseμg×ratweightkg×100."}, "[3]": {"target": "T1, Serotonin (5-Hydroxytryptamine) 5-HT3 (Homo sapiens, UniProt P46098)", "T1 construct": "purchased Eurofins Panlabs Discovery Services Taiwan, Ltd", "T1 sequence (P46098 24-478)": "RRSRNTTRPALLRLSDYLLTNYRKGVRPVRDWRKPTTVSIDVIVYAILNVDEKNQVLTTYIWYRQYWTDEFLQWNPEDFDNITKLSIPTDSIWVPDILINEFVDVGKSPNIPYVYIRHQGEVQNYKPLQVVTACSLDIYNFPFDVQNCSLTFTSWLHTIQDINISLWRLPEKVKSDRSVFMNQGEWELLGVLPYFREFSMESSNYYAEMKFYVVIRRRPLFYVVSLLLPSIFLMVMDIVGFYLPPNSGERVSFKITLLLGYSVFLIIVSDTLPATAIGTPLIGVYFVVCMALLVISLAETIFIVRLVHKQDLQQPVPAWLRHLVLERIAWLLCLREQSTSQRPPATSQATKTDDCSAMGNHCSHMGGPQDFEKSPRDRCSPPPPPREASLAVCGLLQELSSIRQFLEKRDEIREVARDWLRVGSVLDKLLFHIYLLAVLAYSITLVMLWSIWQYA", "assay": "Off-target 271910", "type": "binding", "experimental": "(§1) The potential off-target activity of 10 µM (OEG2)2-IP4 was assessed against a panel of 87 enzymes, receptors, or ion channels that are used in standard safety pharmacology screens.\n(§2) 3.2. Off-target screening assay\n(§3) The experiments were conducted by a contract research organization (Eurofins Panlabs Discovery\n(§4) Services Taiwan, Ltd.) and details on the respective assays can be retrieved via the catalog number\n(§5) provided in Supplementary Table 11 from the company’s webpage\n(§6) (https://www.eurofinsdiscoveryservices.com/). […]"}, "[4]": {"system": "GABAA, Flunitrazepam, Central", "assay": "Off-target 226600", "type": "binding, Rat", "details": "10 µM", "experimental": "as §1, §2, §3, §4, §5, §6"}, "Tachykinin NK1": {"target": "T2, Tachykinin NK1 (Homo sapiens, UniProt P25103)", "T2 construct": "purchased Eurofins Panlabs Discovery Services Taiwan, Ltd", "T2 sequence (P25103 whole entry)": "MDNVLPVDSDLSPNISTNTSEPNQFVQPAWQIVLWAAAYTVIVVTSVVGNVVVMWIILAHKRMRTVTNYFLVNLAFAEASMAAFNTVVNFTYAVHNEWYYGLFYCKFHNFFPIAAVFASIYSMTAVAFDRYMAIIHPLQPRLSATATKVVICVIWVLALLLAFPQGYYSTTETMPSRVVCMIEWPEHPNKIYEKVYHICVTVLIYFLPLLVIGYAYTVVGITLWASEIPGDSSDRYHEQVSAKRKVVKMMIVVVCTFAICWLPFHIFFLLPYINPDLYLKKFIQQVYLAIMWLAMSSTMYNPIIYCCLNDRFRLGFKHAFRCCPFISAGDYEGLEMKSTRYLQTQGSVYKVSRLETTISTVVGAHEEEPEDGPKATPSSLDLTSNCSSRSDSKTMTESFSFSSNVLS", "assay": "Off-target 255520", "type": "binding", "experimental": "as §1, §2\n(§7) The experiments were conducted by a contract research organization (Eurofins Panlabs Discovery Services Taiwan, Ltd.) and details on the respective assays can be retrieved via the catalog number provided in Supplementary Table 11 from the company’s webpage\nas §6\n(§8) At sacrifice the left tibia of animals of the rat model with dietary adenine/high-phosphate-induced uremia and VC was collected, fixed with 70% v/v EtOH and embedded in methyl methacrylate. The trabecular bone compartment is known to be the most metabolic active i.e. actively re-structured bone compartment in CKD. Therefore, histomorphometric and micro-computed tomography (µCT) analysis of bone was performed on the trabecular compartment. Tibial sections were Goldner-stained for histomorphometric analysis of the proximal metaphysis using the AxioVision Release 4.5 software, as […]\n(§9) described previously5. […]"}, "Potassium Channel [KATP]": {"system": "Potassium Channel [KATP]", "assay": "Off-target 265600", "type": "binding, Hamster", "details": "10 µM", "experimental": "as §1, §2, §3, §4, §5, §6"}, "[5]": {"assay": "In vitro ionized human serum calcium", "type": "physicochemical", "experimental": "One potential side effect of inositol phosphate-based drugs is toxicity due to chelation of ionized serum calcium. […] At 100 µM (OEG2)2-IP4, 96 ± 2% of control serum-ionized calcium was measured.\nTo assess reduction in ionized serum calcium, increasing concentrations of test compounds were incubated in human serum (Human AB serum, off-the-clot, HSER-ABPM; LuBioScience GmbH, Zurich, Switzerland) at RT and free ionized calcium levels were measured subsequently by the o-cresolphthalein method using the calcium colorimetric assay."}, "Phosphodiesterase PDE4": {"system": "Phosphodiesterase PDE4", "assay": "Off-target 154000", "type": "biochemical, Human", "details": "10 µM", "experimental": "as §1, §2, §7, §6, §8, §9"}, "[6]": {"assay": "18F-NaF micro-PET/CT uptake on calcified human femoral arteries ex vivo", "type": "binding", "experimental": "To investigate (OEG2)2-IP4 interaction with calcified tissues in a clinically relevant context, a competitive binding assay using ^18F-NaF was applied on severely calcified human femoral arteries and native aortic valves ex vivo. […] First, ^18F-NaF uptake was measured on tissue samples treated with vehicle (human serum) and thereafter, using the same tissue samples, treated with (OEG2)2-IP4 in serum.\nTriplicate aliquots of CPP2s (20 µg Ca/mL) in 100 μL assay buffer (100 mM HBS, pH 7.4 (RT)) were incubated for 1 h at RT in the presence of increasing concentrations of compounds in 50 μL Milli-Q water and ^18F-NaF (1 nM) in 50 μL assay buffer, resulting in a total incubation volume of 200 μL (^18F-NaF was prepared using a FASTlab synthesizer (GE Healthcare, Little Chalfont, UK) and commercially available ^18F-NaF cassettes (GE Healthcare)). Maximum radiotracer binding was determined by incubating CPP2s with ^18F-NaF (1 nM) only. The reaction was terminated by rapid filtration through a SOLAμ™ SPE plate (HRP 2 mg/mL 96-well plate, 22 μm; Thermo Fisher Scientific). SPE individual column matrices were washed twice rapidly in assay buffer and radioactivity on the filters determined by an automatic gamma counter (Wizard2 Gamma Counter, Perkin Elmer, Waltham, MA, USA). […]"}, "Cyclooxygenase COX-2": {"target": "T3, Cyclooxygenase COX-2 (Homo sapiens, UniProt P35354)", "T3 construct": "purchased Eurofins Panlabs Discovery Services Taiwan, Ltd", "T3 sequence (P35354 18-604)": "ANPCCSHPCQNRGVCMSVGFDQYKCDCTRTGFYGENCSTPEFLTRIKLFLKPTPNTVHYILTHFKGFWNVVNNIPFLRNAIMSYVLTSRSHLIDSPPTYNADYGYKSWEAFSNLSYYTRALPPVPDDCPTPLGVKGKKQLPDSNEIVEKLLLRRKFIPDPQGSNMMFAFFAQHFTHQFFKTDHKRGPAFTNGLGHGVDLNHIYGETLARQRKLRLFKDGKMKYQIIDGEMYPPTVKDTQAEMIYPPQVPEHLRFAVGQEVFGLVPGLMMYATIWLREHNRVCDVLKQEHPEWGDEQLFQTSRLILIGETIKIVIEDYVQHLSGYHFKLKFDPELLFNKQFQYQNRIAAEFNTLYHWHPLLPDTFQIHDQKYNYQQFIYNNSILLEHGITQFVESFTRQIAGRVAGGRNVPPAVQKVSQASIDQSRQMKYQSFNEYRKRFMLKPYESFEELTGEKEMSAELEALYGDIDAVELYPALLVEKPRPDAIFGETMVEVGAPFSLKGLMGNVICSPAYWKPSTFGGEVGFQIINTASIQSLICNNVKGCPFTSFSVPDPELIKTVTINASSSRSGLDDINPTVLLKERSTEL", "assay": "Off-target 118010", "type": "biochemical", "experimental": "as §1, §2, §7, §6, §8, §9"}, "[7]": {"target": "T4, Cholecystokinin CCK1 (CCKA) (Homo sapiens, UniProt P32238)", "T4 construct": "purchased Eurofins Panlabs Discovery Services Taiwan, Ltd", "T4 sequence (P32238 whole entry)": "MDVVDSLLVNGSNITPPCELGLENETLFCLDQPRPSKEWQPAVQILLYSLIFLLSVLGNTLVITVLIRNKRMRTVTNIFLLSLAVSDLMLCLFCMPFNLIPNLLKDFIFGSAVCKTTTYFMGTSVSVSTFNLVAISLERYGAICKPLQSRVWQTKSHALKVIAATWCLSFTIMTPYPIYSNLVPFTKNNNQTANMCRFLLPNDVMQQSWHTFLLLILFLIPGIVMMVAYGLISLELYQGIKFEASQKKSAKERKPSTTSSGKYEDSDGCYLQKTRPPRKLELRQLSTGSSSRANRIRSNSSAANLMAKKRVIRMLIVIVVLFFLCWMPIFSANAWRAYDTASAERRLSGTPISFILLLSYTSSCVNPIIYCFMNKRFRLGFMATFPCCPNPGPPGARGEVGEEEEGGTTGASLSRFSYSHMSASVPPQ", "assay": "Off-target 218030", "type": "binding", "experimental": "as §1, §2, §7, §6, §8, §9"}}, "note": "Values joined by “and” are separate entries in the source; they are usually repeats but may differ in a detail not shown here. Equal values may be shown once. Read-outs that look alike come from different tables or passages of the source."}
{"smiles": "COCCOCCO[C@@H]1[C@@H](OP(=O)(O)O)[C@H](OCCOCCOC)[C@@H](OP(=O)(O)O)[C@@H](OP(=O)(O)O)[C@H]1OP(=O)(O)O", "note": "[(OEG2)2-IP4, 4,6-Di-O-(methoxy-diethyleneglycol)-myo-inositol-1,2,3,5-tetrakis(phosphate)]", "values": [{"measurement": "increase in TNFα levels in supernatants", "setting": "[1]", "value": "not observed"}, {"measurement": "intact dose recovered in the urine of healthy rats", "setting": "[2]", "value": "Forty percent"}, {"measurement": "Cumulative recovery from rat urine", "setting": "[2]; 2 h, individual rats Fig. 4j", "value": "21.7% and 21.3% and 24.6% and 20.5%"}, {"measurement": "Cumulative recovery from rat urine", "setting": "[2]; 8 h", "value": "49% and 34.7% and 40.7% and 37.3% and 32.9%"}, {"measurement": "Cumulative recovery from rat urine", "setting": "[2]; 24 h", "value": "52.9% and 39.5% and 42.5% and 38.2% and 34.7%"}, {"measurement": "dose excreted", "setting": "[2]; 2 h, individual rats Fig. 4j", "value": 26.7, "unit": "%"}, {"measurement": "dose excreted", "setting": "[2]; 8 h", "value": 29.8, "unit": "%"}, {"measurement": "dose excreted", "setting": "[2]; 24 h", "value": 34.4, "unit": "%"}, {"measurement": "inhibition at 10 µM", "setting": "[3]", "value": 8, "unit": "%"}, {"measurement": "% Inhibition", "setting": "[4]", "value": -7, "unit": "%"}, {"measurement": "inhibition at 10 µM", "setting": "Tachykinin NK1", "value": -14, "unit": "%"}, {"measurement": "% Inhibition", "setting": "Potassium Channel [KATP]", "value": 14, "unit": "%"}, {"measurement": "concentration from which difference to IP6 in decrease of serum-ionized calcium became significant", "setting": "[5]", "value": "≥ 600", "unit": "µM"}, {"measurement": "% Inhibition", "setting": "Phosphodiesterase PDE4", "value": 12, "unit": "%"}, {"measurement": "change of 18F-NaF uptake vs vehicle", "setting": "[6]; 8.6 μM in human serum", "value": "−38", "unit": "%"}, {"measurement": "maximum average 18F binding (18F-NaF-PET)", "setting": "[6]; IC90 concentration in human serum, individual samples Fig. 3j, unit not given", "value": "319.764 and 464.582 and 653.422 and 447.312 and 563.189 and 486.153 and 450.235"}, {"measurement": "inhibition at 10 µM", "setting": "Cyclooxygenase COX-2", "value": 8, "unit": "%"}, {"measurement": "inhibition at 10 µM", "setting": "[7]", "value": 6, "unit": "%"}]}
